Patent publication US20250051851A1, “NOVEL BIOMARKER FOR DETECTION OF CANCER METASTASIS” (INDUSTRY-ACADEMIC COOPERATION FOUNDATION, YONSEI UNIVERSITY, priority 2021, published 2025)

System: IKZF1 and IKZF3
Test: In vivo experiment using IKZF inhibitor: counting circulating tumor cells in melanoma mouse model
Settings: melanoma mouse model (B16F10 cells injected into paw pad); injection of the drug; FIG. 12

Nc1cccc2c1C(=O)N(C1CCC(=O)NC1=O)C2=O (stereo not shown) [pomalidomide]
number of circulating tumor cells: decreased
